The values that follow are results of earlier work, collected in PubChem BioAssay AID1259410 (Chemical Carcinogenesis Research Information System (CCRIS), 2018).

The test system of the data set is rodent tumor promotion studies, tumor incidence. In words: CCRIS tumor promotion studies.

For the molecule `C=C1/C(=C\C=C2/CCC[C@]3(C)[C@@H]([C@H](C)CCCC(C)(C)O)CC[C@@H]23)C[C@@H](O)C[C@@H]1O`, the outcome (Carcinogen: 7,12-DIMETHYLBENZ[A]ANTHRACENE, 57-97-6, Doses [Carcinogen]: 50 NMOL IN 200 µL ACETONE 2/WK FOR 16 WK, Doses [Promoter]: 0, 0.25, 0.5 NMOL IN 200 µL ACETONE APPLIED 1 HR PRIOR TO CARCINOGEN DOSES 2/WK FOR 16 WK (STUDY DURATION: 16 WK), Doses [Promoter]: 0, 0.25, 0.5 NMOL IN 200 µL ACETONE APPLIED 1 HR PRIOR TO CARCINOGEN DOSES 2/WK FOR 16 WK (STUDY DURATION: 16 WK), Route [Carcinogen]: DERMAL, Route [Promoter]: DERMAL, Species: MOUSE, Strain/Sex: CD-1/FEMALE) is reported as “skin: tumors”; the outcome (Carcinogen: 7,12-DIMETHYLBENZ[A]ANTHRACENE, 57-97-6, Doses [Carcinogen]: 50 NMOL IN 200 µL ACETONE 2/WK FOR 16 WK, Doses [Promoter]: 0, 0.25 NMOL IN 200 µL ACETONE APPLIED 1 HR PRIOR TO AND 24 HR POST CARCINOGEN DOSES 2/WK FOR 16 WK (STUDY DURATION: 16, Route [Carcinogen]: DERMAL, Route [Promoter]: DERMAL, Species: MOUSE, Strain/Sex: CD-1/FEMALE) is “skin: tumors”; the outcome (Carcinogen: 7,12-DIMETHYLBENZ[A]ANTHRACENE, 57-97-6, Doses [Carcinogen]: 50 NMOL IN 200 µL ACETONE 2/WK FOR 16 WK, Doses [Promoter]: 0, 0.5 NMOL IN 200 µL ACETONE APPLIED 24 HR POST CARCINOGEN DOSES 2/WK FOR 16 WK (STUDY DURATION: 16 WK), Route [Carcinogen]: DERMAL, Route [Promoter]: DERMAL, Species: MOUSE, Strain/Sex: CD-1/FEMALE) is recorded as “skin: tumors”; the outcome (Carcinogen: N-METHYL-N'-NITRO-N-NITROSOGUANADINE, 70-25-7, Doses [Carcinogen]: 150 MG/L IN DRINKING WATER, Doses [Promoter]: 0, 2.5, 5 MG/KG IN DIET FOR DURATION OF STUDY BEGINNING 4 WK POST CARCINOGEN TREATMENT (STUDY DURATION: 32 WK), Doses [Promoter]: 0, 2.5, 5 MG/KG IN DIET FOR DURATION OF STUDY BEGINNING 4 WK POST CARCINOGEN TREATMENT (STUDY DURATION: 32 WK), Route [Carcinogen]: ORAL, Route [Promoter]: ORAL, Species: RAT, Strain/Sex: WISTAR/MALE) is on record as “glandular stomach: adenocarcinoma”.
For `CC[C@H](C)[C@H](NC(=O)[C@H](CO)NC(=O)[C@H](CC(N)=O)NC(=O)[C@H](CC(C)C)NC(=O)[C@H](Cc1ccc(O)cc1)NC(=O)[C@H](CCCCN)NC(=O)[C@H](CCCCN)NC(=O)[C@@H](NC(=O)[C@H](C)NC(=O)[C@H](CCSC)NC(=O)[C@H](CCC(N)=O)NC(=O)[C@H](CCCCN)NC(=O)[C@H](CCCNC(=N)N)NC(=O)[C@H](CC(C)C)NC(=O)[C@H](CCCNC(=N)N)NC(=O)[C@@H](NC(=O)[C@H](Cc1ccc(O)cc1)NC(=O)[C@H](CC(N)=O)NC(=O)[C@H](CC(=O)O)NC(=O)[C@@H](NC(=O)[C@H](Cc1ccccc1)NC(=O)[C@@H](NC(=O)[C@H](C)NC(=O)[C@H](CC(=O)O)NC(=O)[C@H](CO)NC(=O)[C@@H](N)Cc1c[nH]cn1)C(C)C)[C@@H](C)O)[C@@H](C)O)C(C)C)C(=O)N[C@@H](CC(C)C)C(=O)N[C@@H](CC(N)=O)C(=O)O`, the outcome (Carcinogen: AZOXYMETHANE, 25843-45-2, Doses [Carcinogen]: 7.4 MG/KG BW IN 0.9% SALINE 1/WK FOR 10 WK, Doses [Promoter]: 0, 20 UG/KG BW IN OLIVE OIL 1/2 D FOR DURATION OF STUDY (STUDY DURATION: 45 WK), Route [Carcinogen]: SUBCUTANEOUS, Route [Promoter]: SUBCUTANEOUS, Species: RAT, Strain/Sex: WISTAR/MALE) is on record as “colon: tumor”.
Turning to `O=NO`, the outcome (Carcinogen: 1,2-DIMETHYLHYDRAZINE [540-73-8], Doses [Carcinogen]: 8 MG/KG, Doses [Promoter]: 50, 500 MG, Route [Promoter]: INJECTION, Species: MOUSE, Strain/Sex: (C57B1 X CBA)/MALE) is listed as “liver: hepatocarcinoma, hepatic hemangioendothelioma; kidney: renal adenoma; inc”; the outcome (Carcinogen: Diethyl nitrosamine (DEN), 55-18-5 and dimethylhydrazine (DMH), 30260-66-3, Carcinogen: Diethyl nitrosamine (DEN), 55-18-5 and dimethylhydrazine (DMH), 30260-66-3, Doses [Carcinogen]: DEN, 200 mg/kg once at -3 days, DMH, 40 mg/kg 4 injections between day 0 and wk 2, Doses [Promoter]: 0, 0.1, 0.2% in drinking water from week 2 to 29, study duration 29 wk, Doses [Promoter]: 0, 0.1, 0.2% in drinking water from week 2 to 29, study duration 29 wk, Route [Carcinogen]: Intraperitoneal (DEN) and subcutaneous (DMH), Route [Promoter]: Oral, Species: Rat, Strain/Sex: F344/Du Crj (20/group)) was “liver: hepatocellular adenoma and carcinoma. colon adenoma and carcinoma. incide”; the outcome (Carcinogen: N-METHYL-N'-NITRO-N-NITROSOGUANIDINE, 70-25-7, Doses [Carcinogen]: 150 MG/KG BW IN DMSO:WATER (1:1) ONCE, Doses [Promoter]: 0, 0.3% IN DRINKING WATER BEGINNING 1 WK POST CARCINOGEN DOSE (STUDY DURATION: 52 WK), Route [Carcinogen]: GAVAGE, Route [Promoter]: ORAL, Species: RAT, Strain/Sex: F344/MALE) is reported as “forestomach: papilloma, squamous cell carcinoma”; the outcome (Carcinogen: N-bis(2-hydroxypropyl)nitrosamine (DHPN) (53609-64-6), Doses [Carcinogen]: 0.1% (w/v) in drinking water for 3 wk, then surgery for acid reflux esophagitis, study duration 34 wk, Doses [Promoter]: 0 (basal diet), 0.2% sodium nitrite, 1% ascorbic acid with 0.2% sodium nitrite, study duration 32 wk after first promote, Doses [Promoter]: 0 (basal diet), 0.2% sodium nitrite, 1% ascorbic acid with 0.2% sodium nitrite, study duration 32 wk after first promote, Route [Carcinogen]: Oral, Route [Promoter]: Oral, Species: Rat, Strain/Sex: F344/Male (24/group)) is reported as “esophagus (p1-p4): papilloma; significant only for combined treatment in p4 segm”; the outcome (Carcinogen: N-methyl-N'-nitro-N-nitrosoguanidine (70-25-7), Doses [Carcinogen]: 0.01% in drinking water for 10 wk for initiation of glandular stomach tumors, 100 mg/kg intragastrically after 16 hr st, Doses [Promoter]: 0.05%, 0.1%, or 0.2% in drinking water from wk 11 to end of study in combination with 0.1% or 1.0% vitamin C in diet (, Route [Carcinogen]: Oral and Intragastric, Route [Promoter]: Oral, Species: Rat, Strain/Sex: F344/Male (15/15)/(14/15)(15/15)(15/15)(15/15)(15/15)(14/15)) was “forestomach: papilloma, squamous cell carcinoma increase in incidence and/or sev”; the outcome (Carcinogen: URETHANE, 51-79-6, Doses [Carcinogen]: 0.5 MG/G BW 1/WK FOR 2 WK, Doses [Promoter]: 0, 50 MG/L IN DRINKING WATER FOR THE DURATION OF STUDY BEGINNING 4 WK PRIOR TO CARCINOGEN TREATMENT (STUDY DURATION: 210, Route [Carcinogen]: INTRAPERITONEAL, Route [Promoter]: ORAL, Species: MOUSE, Strain/Sex: A/SNELL/FEMALE) is recorded as “lung: adenoma”. Moreover, the outcome is, setting by setting: (Carcinogen: URETHANE, 51-79-6, Doses [Carcinogen]: 0.5 MG/G BW 1/WK FOR 2 WK, Doses [Promoter]: 0, 50 MG/L IN DRINKING WATER FOR THE DURATION OF STUDY BEGINNING 4 WK PRIOR TO CARCINOGEN TREATMENT (STUDY DURATION: 210, Route [Carcinogen]: INTRAPERITONEAL, Route [Promoter]: ORAL, Species: MOUSE, Strain/Sex: C57BL X CBA/ FEMALE) “lung: adenoma”; (Carcinogen: URETHANE, 51-79-6, Doses [Carcinogen]: 0.5 MG/G BW/WK FOR 2 WK, Doses [Promoter]: 0, 50, 500 MG/L IN DRINKING WATER FOR THE DURATION OF STUDY BEGINNING 4 WK PRIOR TO CARCINOGEN TREATMENT (STUDY DURATION, Doses [Promoter]: 0, 50, 500 MG/L IN DRINKING WATER FOR THE DURATION OF STUDY BEGINNING 4 WK PRIOR TO CARCINOGEN TREATMENT (STUDY DURATION, Route [Carcinogen]: INTRAPERITONEAL, Route [Promoter]: ORAL, Species: MOUSE, Strain/Sex: A/SNELL) “lung: adenoma”; (Carcinogen: URETHANE, 51-79-6, Doses [Carcinogen]: 0.5 MG/G BW/WK FOR 2 WK, Doses [Promoter]: 0, 50, 500 MG/L IN DRINKING WATER FOR THE DURATION OF STUDY BEGINNING 4 WK PRIOR TO CARCINOGEN TREATMENT (STUDY DURATION, Doses [Promoter]: 0, 50, 500 MG/L IN DRINKING WATER FOR THE DURATION OF STUDY BEGINNING 4 WK PRIOR TO CARCINOGEN TREATMENT (STUDY DURATION, Route [Carcinogen]: INTRAPERITONEAL, Route [Promoter]: ORAL, Species: MOUSE, Strain/Sex: C57BLXCBA) “lung: adenoma”.
In the case of `C[C@]12CC[C@@H]3c4ccc(OS(=O)(=O)O)cc4CC[C@H]3[C@@H]1CCC2=O`, the outcome (Carcinogen: 7,12-Dimethylbenz[a]anthrene, 57-97-6, Doses [Carcinogen]: 5 mg in corn oil, intragastric, once, Doses [Promoter]: 100 ng/ml in drinking water, study duration 20 wk, Route [Carcinogen]: Oral, Route [Promoter]: Oral, Species: Rat, Strain/Sex: Sprague-Dawley/Female (16/group)) is on record as “mammary gland: tumor”.
For `CCCC[C@@H](C)[C@@H](OC(=O)C[C@@H](CC(=O)O)C(=O)O)[C@H](C[C@@H](C)C[C@H](O)CCCC[C@@H](O)C[C@H](O)[C@H](C)N)OC(=O)C[C@@H](CC(=O)O)C(=O)O`, the outcome (Doses [Carcinogen]: 100 PPB IN WATER FOR 30 MIN, Doses [Promoter]: 0, 23, 104 PPM IN DIET FOR 42 WK BEGINNING 1 MO POST CARCINOGEN TREATMENT (STUDY DURATION: 64 WK), Doses [Promoter]: 0, 23, 104 PPM IN DIET FOR 42 WK BEGINNING 1 MO POST CARCINOGEN TREATMENT (STUDY DURATION: 64 WK), Route [Carcinogen]: IMMERSION, Route [Promoter]: ORAL, Species: FISH, Strain/Sex: SHASTA RAINBOW TROUT/MALE,FEMALE) is on record as “liver: tumor”.
Take `CCCCCCCCCc1ccc(O)cc1`: under “Carcinogen: 2',3-dimethyl-4-aminobiphenyl, 13394-86-0, Doses [Carcinogen]: 50 mg/kg every other wk for 10 injections from 7 wks of age, study duration 64 wks, Doses [Promoter]: 0, 25, 250, 2000 ppm in diet from 3 wks of age for 3 wks, Route [Carcinogen]: Subcutaneous, Route [Promoter]: Oral, Species: Rat, Strain/Sex: F344/Male (15-20/Group)”, the outcome is on record as “prostate: adenocarcinoma, no effect”.
Take `c1ccc2c(c1)cc1ccc3cccc4ccc2c1c34`: for the setting “Carcinogen: BENZO[A]PYRENE [50-32-8], Doses [Carcinogen]: 8 MMOL/MOUSE 3X/WK FOR 25 WKS (STUDY DURATION: 30 WKS), Doses [Promoter]: UVA 40 KJ/M2 FOR 25 WKS 2 HR AFTER CARCINOGEN TREATMENT (STUDY DURATION: 30 WKS), Route [Carcinogen]: DERMAL, Route [Promoter]: IRRADIATION TO SKIN, Species: MOUSE, Strain/Sex: SKH-1/FEMALE (20/GROUP)”, the outcome was “skin: tumor incidence and multiplicity increased”.
